Results as given in ChEMBL document CHEMBL2203041, “Synthesis, biological assessment, and molecular modeling of racemic 7-aryl-9,10,11,12-tetrahydro-7H-benzo[7,8]chromeno[2,3-b]quinolin-8-amines as potential drugs for the treatment of Alzheimer's disease” (Eur J Med Chem, 2012).

Legend:
[1] = Inhibition of voltage-dependent Ca2+ channel; conditions: concentration not given here
Acetylcholinesterase [2] = molecular target: Acetylcholinesterase (Homo sapiens, UniProt P22303)
Description: Inhibition of human AChE using acetylthiocholine iodide as substrate incubated for 10 mins prior to substrate addition measured after 15 mins by Ellman's method

Cholinesterase = Cholinesterase (Homo sapiens, UniProt P06276)
Sequence of Cholinesterase (P06276 whole entry): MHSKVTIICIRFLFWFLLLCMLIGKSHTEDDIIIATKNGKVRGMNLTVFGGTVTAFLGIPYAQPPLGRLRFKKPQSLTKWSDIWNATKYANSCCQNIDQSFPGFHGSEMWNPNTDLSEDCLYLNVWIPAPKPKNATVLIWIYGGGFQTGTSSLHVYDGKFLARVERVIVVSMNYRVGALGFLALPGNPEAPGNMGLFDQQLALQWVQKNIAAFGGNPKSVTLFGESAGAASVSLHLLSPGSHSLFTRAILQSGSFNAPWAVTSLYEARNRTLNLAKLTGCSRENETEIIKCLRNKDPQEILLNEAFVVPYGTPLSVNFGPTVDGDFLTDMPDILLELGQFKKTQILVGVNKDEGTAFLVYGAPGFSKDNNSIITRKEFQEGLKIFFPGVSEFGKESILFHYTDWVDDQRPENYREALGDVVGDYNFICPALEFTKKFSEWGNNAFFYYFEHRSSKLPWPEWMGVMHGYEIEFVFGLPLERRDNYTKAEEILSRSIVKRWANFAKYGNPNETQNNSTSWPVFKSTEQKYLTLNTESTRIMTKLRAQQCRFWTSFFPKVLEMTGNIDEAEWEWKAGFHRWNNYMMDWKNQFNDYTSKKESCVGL
Description: Inhibition of human BuChE using butyrylthiocholine iodide as substrate incubated for 10 mins prior to substrate addition measured after 15 mins by Ellman's method

[3] = Antioxidant activity assessed as AAPH-induced radical scavenging activity incubated for 15 mins prior to AAPH induction measured every 1 min for 80 mins by ORAC-FL assay relative to trolox; assay type: functional
Acetylcholinesterase [4] = molecular target: T1, Acetylcholinesterase (Electrophorus electricus, UniProt O42275); assay: Mixed-type inhibition of electric eel AChE using acetylthiocholine iodide as substrate by Ellman's method
T1 sequence (O42275 whole entry): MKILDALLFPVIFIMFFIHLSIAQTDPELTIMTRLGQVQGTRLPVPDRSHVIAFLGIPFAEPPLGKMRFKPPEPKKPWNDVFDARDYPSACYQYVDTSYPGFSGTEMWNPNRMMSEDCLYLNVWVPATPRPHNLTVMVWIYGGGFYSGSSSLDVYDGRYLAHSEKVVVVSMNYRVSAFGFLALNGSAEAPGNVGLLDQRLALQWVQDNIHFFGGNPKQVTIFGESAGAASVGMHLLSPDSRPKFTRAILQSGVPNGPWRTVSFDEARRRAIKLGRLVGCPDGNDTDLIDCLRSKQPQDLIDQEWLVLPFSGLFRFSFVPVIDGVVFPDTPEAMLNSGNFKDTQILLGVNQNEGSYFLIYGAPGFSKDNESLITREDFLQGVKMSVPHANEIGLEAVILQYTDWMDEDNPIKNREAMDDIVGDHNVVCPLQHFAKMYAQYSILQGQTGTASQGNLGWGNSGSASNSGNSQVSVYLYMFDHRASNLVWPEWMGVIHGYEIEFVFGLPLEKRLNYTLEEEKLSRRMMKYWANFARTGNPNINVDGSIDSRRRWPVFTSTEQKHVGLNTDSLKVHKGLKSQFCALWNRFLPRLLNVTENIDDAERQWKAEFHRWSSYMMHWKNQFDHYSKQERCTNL

Acetylcholinesterase [5] = molecular target: T1, Acetylcholinesterase; assay: Inhibition of electric eel AChE
[6] = Neurotoxicity in Wistar rat primary cortical neurons assessed as decrease in cell viability at 100 uM by XTT assay; assay type: toxicity, cell-based; conditions: cerebral cortex neuron
in vitro [7] = conditions: human, HepG2 cells
Description: Cytotoxicity against human HepG2 cells assessed as cell viability at 10 uM after 24 hrs by MTT assay relative to control

[8] = Neurotoxicity in Wistar rat primary cortical neurons assessed as decrease in cell viability at 50 uM by XTT assay; assay type: toxicity, cell-based; conditions: cerebral cortex neuron
in vitro [9] = conditions: human, HepG2 cells; remark: listed apart in the source
Description: Cytotoxicity against human HepG2 cells assessed as cell viability at 30 uM after 24 hrs by MTT assay relative to control

cells = conditions: Rattus norvegicus, Wistar, Cerebral cortex neuron, 24 h
Description: Neuroprotective activity in 20 uM rotenone and 10 uM oligomycin-treated Wistar rat primary cortical neurons assessed as increase in cell viability after 24 hrs by XTT assay

in vitro [10] = conditions: human, HepG2 cells; remark: listed apart in the source
Description: Cytotoxicity against human HepG2 cells assessed as cell viability at 3 uM after 24 hrs by MTT assay relative to control

HepG2 = assay: Cytotoxicity against human HepG2 cells assessed as cell viability after 24 hrs by MTT assay relative to control; assay type: cell-based; conditions: hepg2, 24 h
in vitro [11] = conditions: human, HepG2 cells; remark: listed apart in the source
Description: Cytotoxicity against human HepG2 cells assessed as cell viability at 1 uM after 24 hrs by MTT assay relative to control

[12] = Permeability of the compound by PAMPA; assay type: ADME; conditions: read-out: permeability
in vitro [13] = conditions: human, HepG2 cells; remark: listed apart in the source
Description: Cytotoxicity against human HepG2 cells assessed as cell viability at 300 uM after 24 hrs by MTT assay relative to control

in vitro [14] = conditions: human, HepG2 cells; remark: listed apart in the source
Description: Cytotoxicity against human HepG2 cells assessed as cell viability at 100 uM after 24 hrs by MTT assay relative to control

Sequence of Acetylcholinesterase (Homo sapiens, UniProt P22303) (P22303 whole entry): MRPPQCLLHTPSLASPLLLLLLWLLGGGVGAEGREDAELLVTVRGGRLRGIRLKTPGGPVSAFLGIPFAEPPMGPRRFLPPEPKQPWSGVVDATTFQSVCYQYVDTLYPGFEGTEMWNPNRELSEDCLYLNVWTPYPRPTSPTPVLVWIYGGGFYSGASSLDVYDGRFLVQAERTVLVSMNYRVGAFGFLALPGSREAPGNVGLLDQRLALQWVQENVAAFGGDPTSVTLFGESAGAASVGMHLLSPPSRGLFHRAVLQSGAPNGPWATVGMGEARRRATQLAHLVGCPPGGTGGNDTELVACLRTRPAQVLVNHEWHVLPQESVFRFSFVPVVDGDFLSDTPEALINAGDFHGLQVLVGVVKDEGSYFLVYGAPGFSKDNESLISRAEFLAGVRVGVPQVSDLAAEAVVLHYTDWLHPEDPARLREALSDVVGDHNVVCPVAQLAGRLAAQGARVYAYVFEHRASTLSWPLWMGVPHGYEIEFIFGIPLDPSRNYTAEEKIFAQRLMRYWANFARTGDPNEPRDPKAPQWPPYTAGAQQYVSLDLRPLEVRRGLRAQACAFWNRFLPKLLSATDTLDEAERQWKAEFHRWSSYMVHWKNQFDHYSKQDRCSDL

Work on `CCOC(=O)C1=C(C)Oc2nc3c(c(N)c2C1c1ccc(OC)cc1)CCCC3` (stereo not drawn) yielded an inhibition [1] of 50%.
For `Nc1c2c(nc3c1C(c1ccc(O)cc1)c1ccc4ccccc4c1O3)CCCC2` (racemic), the IC50 (Acetylcholinesterase [2]) was 7.83 µM and the IC50 (Cholinesterase) was > 10 µM.
With `COc1cc(C2c3ccc4ccccc4c3Oc3nc4c(c(N)c32)CCCC4)ccc1O` (racemic) the fold change (FC) [3] was 1.5, the IC50 (Acetylcholinesterase [2]) was 0.33 µM and the IC50 (Cholinesterase) was > 10 µM. For the same molecule, the Ki (Acetylcholinesterase [4]) was 0.081 µM.
For `Cc1ccc(C2c3ccc4ccccc4c3Oc3nc4c(c(N)c32)CCCC4)cc1` (racemic), the IC50 (Acetylcholinesterase [2]) was 0.4 µM and the IC50 (Cholinesterase) was > 10 µM.
In the case of `CCOC(=O)c1c(C)nc2nc3c(c(N)c2c1-c1ccc(F)cc1)CCCC3`, the inhibition [1] is reported as 38% and the IC50 (Acetylcholinesterase [5]) is reported as 0.71 µM.
With `Nc1c2c(nc3c1C(c1ccc(Cl)c(Cl)c1)c1ccc4ccccc4c1O3)CCCC2` (racemic) the Activity [6] was 40%, the viability at 24 h, 10 µM (in vitro [7]) was 79.9% and the Activity [8] was “Non-toxic”. The viability at 24 h, 30 µM (in vitro [9]) was 68.1%, the EC50 (cells) was 3.28 µM and the IC50 (Acetylcholinesterase [2]) was 5.07 µM. The IC50 (Cholinesterase) was > 10 µM, the viability at 24 h, 3 µM (in vitro [10]) was 86.2% and the Activity (HepG2) was “Dose-dependent effect”. For the same molecule, the viability at 24 h, 1 µM (in vitro [11]) was 97.5%, the Papp [12] was 12.3 ×10⁻⁶ cm/s and the viability at 24 h, 300 µM (in vitro [13]) was 61%. It also gave a viability at 24 h, 100 µM (in vitro [14]) of 63.4%.
With `Nc1c2c(nc3c1C(c1ccccc1)c1ccc4ccccc4c1O3)CCCC2` (racemic) the IC50 (Acetylcholinesterase [2]) was 0.3 µM and the IC50 (Cholinesterase) was > 10 µM.
With `COc1ccccc1C1c2ccc3ccccc3c2Oc2nc3c(c(N)c21)CCCC3` (racemic) the IC50 (Acetylcholinesterase [2]) was 4.53 µM and the IC50 (Cholinesterase) was 9.37 µM.
In the case of `COc1cc(C2c3ccc4ccccc4c3Oc3nc4c(c(N)c32)CCCC4)cc(OC)c1OC` (racemic), the viability at 24 h, 10 µM (in vitro [7]) is reported as 96.4%, the Activity [8] is reported as “Non-toxic” and the viability at 24 h, 30 µM (in vitro [9]) is reported as 96.6%. The EC50 (cells) was 4.38 µM, the IC50 (Acetylcholinesterase [2]) was 3.51 µM and the IC50 (Cholinesterase) was > 10 µM. For the same molecule, the viability at 24 h, 3 µM (in vitro [10]) was 95.6%, the Activity (HepG2) was “Dose-dependent effect” and the viability at 24 h, 1 µM (in vitro [11]) was 96.5%. The Papp [12] was 23.4 ×10⁻⁶ cm/s, the viability at 24 h, 300 µM (in vitro [13]) was 93.5% and the viability at 24 h, 100 µM (in vitro [14]) was 94.5%.
For `Nc1c2c(nc3c1C(c1ccc([N+](=O)[O-])cc1)c1ccc4ccccc4c1O3)CCCC2` (racemic), the Activity [6] was 40%, the viability at 24 h, 10 µM (in vitro [7]) was 92.6% and the Activity [8] was “Non-toxic”. For the same molecule, the viability at 24 h, 30 µM (in vitro [9]) was 90.3%, the EC50 (cells) was 2.36 µM and the IC50 (Acetylcholinesterase [2]) was 5.74 µM. The IC50 (Cholinesterase) was > 10 µM, the viability at 24 h, 3 µM (in vitro [10]) was 93% and the Activity (HepG2) was “Dose-dependent effect”. For the same molecule, the viability at 24 h, 1 µM (in vitro [11]) was 95%, the Papp [12] was 16.1 ×10⁻⁶ cm/s and the viability at 24 h, 300 µM (in vitro [13]) was 72.1%. The viability at 24 h, 100 µM (in vitro [14]) was 85%.
With `Nc1c2c(nc3c1C(c1c(Cl)cccc1Cl)c1ccc4ccccc4c1O3)CCCC2` (racemic) the IC50 (Acetylcholinesterase [2]) was 4.01 µM and the IC50 (Cholinesterase) was > 10 µM.
With `COc1ccc(C2c3ccc4ccccc4c3Oc3nc4c(c(N)c32)CCCC4)c(OC)c1` (racemic) the Activity [6] was 40%, the viability at 24 h, 10 µM (in vitro [7]) was 85.3% and the Activity [8] was “Non-toxic”. For the same molecule, the viability at 24 h, 30 µM (in vitro [9]) was 76.9%, the EC50 (cells) was 11.1 µM and the IC50 (Acetylcholinesterase [2]) was 0.37 µM. For the same molecule, the IC50 (Cholinesterase) was > 10 µM, the viability at 24 h, 3 µM (in vitro [10]) was 84.2% and the Activity (HepG2) was “Dose-dependent effect”. The viability at 24 h, 1 µM (in vitro [11]) was 97.8%, the Papp [12] was 14.6 ×10⁻⁶ cm/s and the viability at 24 h, 300 µM (in vitro [13]) was 74.8%. For the same molecule, the viability at 24 h, 100 µM (in vitro [14]) was 78.9%.
